# Biological target: Vascular endothelial growth factor receptor 2 (Homo sapiens, UniProt P35968)
# Experiment: Inhibition of human cytoplasmic VEGFR2 expressed in baculovirus after 15 mins by time resolved fluorescence assay
# Sequence of Vascular endothelial growth factor receptor 2 (P35968 whole entry): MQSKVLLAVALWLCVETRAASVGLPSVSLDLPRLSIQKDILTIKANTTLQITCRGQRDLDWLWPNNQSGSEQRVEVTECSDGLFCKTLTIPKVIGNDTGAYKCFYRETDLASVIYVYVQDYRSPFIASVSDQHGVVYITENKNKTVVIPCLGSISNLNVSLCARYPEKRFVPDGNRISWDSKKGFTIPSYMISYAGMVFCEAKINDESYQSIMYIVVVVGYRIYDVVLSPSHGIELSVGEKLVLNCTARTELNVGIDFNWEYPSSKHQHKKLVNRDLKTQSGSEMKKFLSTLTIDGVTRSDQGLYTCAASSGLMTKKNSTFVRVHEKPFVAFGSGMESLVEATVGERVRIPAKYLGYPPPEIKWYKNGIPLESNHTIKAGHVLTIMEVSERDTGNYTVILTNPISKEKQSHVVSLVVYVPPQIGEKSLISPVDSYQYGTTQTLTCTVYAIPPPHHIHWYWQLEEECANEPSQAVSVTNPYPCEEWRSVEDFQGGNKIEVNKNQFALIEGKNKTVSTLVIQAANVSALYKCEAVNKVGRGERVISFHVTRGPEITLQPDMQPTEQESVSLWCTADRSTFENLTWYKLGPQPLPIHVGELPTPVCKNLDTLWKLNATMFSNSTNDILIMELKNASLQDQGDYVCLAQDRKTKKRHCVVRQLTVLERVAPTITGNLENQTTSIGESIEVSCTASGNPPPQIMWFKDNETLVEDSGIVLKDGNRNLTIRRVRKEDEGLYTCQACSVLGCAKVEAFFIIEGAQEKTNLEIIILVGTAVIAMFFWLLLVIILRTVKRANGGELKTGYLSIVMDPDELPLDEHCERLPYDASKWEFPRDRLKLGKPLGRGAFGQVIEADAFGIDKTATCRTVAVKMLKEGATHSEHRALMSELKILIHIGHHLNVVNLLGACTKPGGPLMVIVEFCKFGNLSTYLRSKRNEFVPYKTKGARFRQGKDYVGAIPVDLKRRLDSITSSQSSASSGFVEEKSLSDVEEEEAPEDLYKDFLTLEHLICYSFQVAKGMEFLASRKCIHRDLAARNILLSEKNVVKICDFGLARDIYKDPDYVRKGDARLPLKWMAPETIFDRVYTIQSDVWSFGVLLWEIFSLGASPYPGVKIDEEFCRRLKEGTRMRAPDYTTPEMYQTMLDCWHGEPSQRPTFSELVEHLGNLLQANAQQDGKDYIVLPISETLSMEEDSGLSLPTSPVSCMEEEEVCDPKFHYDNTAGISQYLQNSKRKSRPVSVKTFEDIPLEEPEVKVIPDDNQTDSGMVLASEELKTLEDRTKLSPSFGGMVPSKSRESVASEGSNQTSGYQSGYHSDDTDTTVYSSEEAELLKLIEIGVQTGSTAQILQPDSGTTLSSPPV
compound,measurement,value
"C=c1nns/c1=c1\[nH][nH]c(=O)c1=Cc1c[nH]c2ccc(Cl)cc12 [4-((5-chloro-1H-indol-3-yl)methylene)-3-(4-methyl-1,2,3-thiadiazol-5-yl)-1H-pyrazol-5(4H)-one]",IC50,> 0.3 µM
"C=c1nns/c1=c1\[nH][nH]c(=O)c1=Cc1cn(C)c2ccc(C#N)cc12 [1-methyl-3-((3-(4-methyl-1,2,3-thiadiazol-5-yl)-5-oxo-1H-pyrazol-4(5H)-ylidene)methyl)-1H-indole-5-carbonitrile]",IC50,> 0.3 µM
